Biological target: T1, C1s (Cricetulus griseus, UniProt G3GUR0)
T1 construct: endogenous in cells; host or cells: CHO cells; FreeStyle CHO-S (Thermo Fisher) named in Materials and Methods; 10x concentrated culture supernatant
Experiment: Proteolysis of purified MN gp120 by 10× concentrated CHO supernatant, western blot
Type: biochemical, Chinese Hamster
Conditions: purified MN gp120 (clade B) combined with 10× concentrated CHO supernatant; reduced with DTT; goat polyclonal anti-gp120 western blot
Protocol: FIGS. 8A and 8B. […] FIG. 8A. Purified MN gp120, a clade B protein, was combined with 10× concentrated CHO supernatant. Samples were reduced with DTT and probed on western blot using a goat polyclonal antibody against gp120. FIG. 8B provides details of samples loaded in lanes 1-5 in FIG. 8A. The serine protease inhibitor, 4-AMB was used.
Enrichment of protease from CHO cell culture supernatant was carried out using a series of chromatography columns to enrich for protein containing proteolytic activity. Individual chromatography fractions (CHO cell culture supernatant was fractionated based on size using size exclusion chromatography, followed by further purification on strong anion-exchange column) were assayed for the presence of protease activity against purified gp120.

T1 sequence (G3GUR0 entry or part of it): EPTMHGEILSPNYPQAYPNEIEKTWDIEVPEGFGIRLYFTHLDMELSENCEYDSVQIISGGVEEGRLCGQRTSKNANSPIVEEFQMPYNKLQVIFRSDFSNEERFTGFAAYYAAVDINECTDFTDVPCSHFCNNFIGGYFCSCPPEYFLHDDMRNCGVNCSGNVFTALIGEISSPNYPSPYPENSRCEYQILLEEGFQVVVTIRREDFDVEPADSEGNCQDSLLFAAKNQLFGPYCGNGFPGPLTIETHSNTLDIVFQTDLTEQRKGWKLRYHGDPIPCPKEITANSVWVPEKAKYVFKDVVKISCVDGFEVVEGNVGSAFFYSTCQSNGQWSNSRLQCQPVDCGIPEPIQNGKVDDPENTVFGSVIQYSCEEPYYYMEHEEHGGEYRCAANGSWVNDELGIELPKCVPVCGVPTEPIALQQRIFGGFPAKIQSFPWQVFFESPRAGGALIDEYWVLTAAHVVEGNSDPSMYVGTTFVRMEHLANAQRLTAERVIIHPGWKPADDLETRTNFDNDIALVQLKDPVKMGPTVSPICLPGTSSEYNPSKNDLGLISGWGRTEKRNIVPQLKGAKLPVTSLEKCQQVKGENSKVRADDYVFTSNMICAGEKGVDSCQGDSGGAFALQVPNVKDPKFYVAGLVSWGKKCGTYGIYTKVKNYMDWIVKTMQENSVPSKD

Compound: O=C(O)CN(CCOCCOCCN(CC(=O)O)CC(=O)O)CC(=O)O [EGTA]
- proteolysis of gp120 in CHO cell supernatant: Inhibition of proteolysis

From patent US12559526B2, “Complement component 1s (C1s) deficient cells for production of vaccines and biopharmaceutical proteins” (The Regents of the University of California, priority 2018, dated 2026)
